Source: US20090022803A1, “Oral Formulations For Delivery of Catecholic Butanes Including Ndga Compounds” (priority 2005, published 2009)
Like-named read-outs stand apart in the source and are kept apart here.

Type: physicochemical
Protocol: A 10 mL solution of M4N at a concentration of about 10 mg/mL in 40% BP-β-CD was made as follows. About 10 mL of the 40% HP-β-CD solution were added to a glass beaker containing a stir bar. The beaker was placed on a magnetic plate and the stir bar was set to stir at medium speed. About […] of M4N were slowly added to the 40% HP-β-CD in the center of the beaker with the aid of a spatula. The M4N/40% HP-β-CD mixture was stirred for 2 hr or until all M4N was uniformly suspended without any clumps being present. The M4N/40% HP-β-CD mixture was optionally heated at 80° C. for about 30 min. (or longer if a larger volume of solution was desired, for example, 1 hr at 80° C. for 100 mL of the M4N/HP-β-CD mixture), or longer as needed to ensure complete dissolution of M4N. […] The final M4N/40% HP-β-CD solution was stored at room temperature and was kept protected from light. This process may be scaled up or down to obtain the requisite volume or concentration of M4N. Formulations containing M4N in other cyclodextrin solutions may be similarly made, such as, for example, by substituting HP-β-CD in the process described above with other cyclodextrins. […]
A 10 mL solution of M4N at a concentration of about 10 mg/mL in 50% HP-β-CD/0.5% HPMC was made as follows. About 10 mL of the 50% HP-β-CD/0.5% HPMC solution were added to a glass beaker containing a stir bar. The beaker was placed on a magnetic plate and the stir bar was set to stir at medium speed. About 100 mg of M4N were slowly added to the 50% HP-β-CD/0.5% HPMC in the center of the beaker with the aid of a spatula. The M4N/50% HP-β-CD/0.5% HPMC mixture was stirred for 24 hr or until all M4N was uniformly suspended without any clumps being present. The M4N/50% HP-β-CD/0.5% HPMC mixture was heated at about 90° C. for about 30 min. (or longer if a larger volume of solution was desired, for example, 1 hr at 90° C. for 500 mL of the M4N/50% HP-β-CD/0.5% HPMC mixture), or longer as needed to ensure complete dissolution of M4N. […] The final M4N/50% HP-β-CD/0.5% HPMC solution was stored at room temperature and was kept protected from light.
A 10 mL solution of M4N at a concentration of about 20 mg/mL in 5% EC (w/v) (the “EC formulation”) was made as follows. About 10 mL of 5% EC formulation, made as described above, were added to a glass beaker containing a stir bar. The beaker was placed on a magnetic plate and the stir bar was set to stir at medium speed, and covered with a round Teflon® cover. About 200 mg of M4N were slowly added to the 5% EC formulation in the center of the beaker with the aid of a spatula to prevent M4N from sticking to the beaker wall. The M4N/EC mixture was stirred for 2 hr or until all M4N had dissolved or was uniformly suspended without any clumps being present. The M4N/EC mixture was heated at about 60° C. for about 30 min. (or longer if a larger volume of solution was desired, for example, 1 hr at 60° C. for 500 mL of the M4N/EC mixture), or longer as needed to ensure complete dissolution of M4N. […] The final M4N/EC solution was stored at room temperature and was kept protected from light.
A 10 mL solution of M4N at a concentration of about 50 mg/mL in sesame oil was made as follows. About 10 mL of sesame oil were added to a glass beaker containing a stir bar. The beaker was placed on a magnetic plate and the stir bar was set to stir at medium speed. About 500 mg of M4N were slowly added to the sesame oil in the center of the beaker with the aid of a spatula to prevent M4N from sticking to the beaker wall. The M4N/sesame oil mixture was stirred for about 2 hr or until all M4N had dissolved or was uniformly suspended without any clump being present. The M4N/sesame oil mixture was heated at about 60° C. for about 30 min. (or longer if a larger volume of solution was desired, for example, 1 hr at 60° C. for 500 mL of the M4N/sesame oil mixture), or longer as need to ensure complete dissolution of M4N. […]

[1] = M4N 13.3 mg/mL in 27% HP-β-CD, 33% PEG 400 (v/v)
[2] = M4N 13.3 mg/mL in 27% HP-β-CD, 33% Tween ® 80 (v/v)
[3] = M4N 16.7 mg/mL in 13% HP-β-CD, 67% PEG 300 (v/v)
[4] = M4N 19.3 mg/mL in 10% HP-β-CD, 77% PEG 300 (v/v)
[5] = M4N 50 mg/mL in 50% HP-β-CD, 1.25% PVP (w/v)
Throughout, for Dissolution After Cool Down: key: N represents 'No'; Y represents 'Yes.'.

In the case of `COc1ccc(C[C@@H](C)[C@@H](C)Cc2ccc(OC)c(OC)c2)cc1OC` [Formulation M4N, meso-1,4-bis(3,4-dimethoxyphenyl)-2,3-dimethylbutane], the “Dissolution After Cool Down” value [1] is reported as “Y”, the “Dissolution After Rotation” value [1] is reported as “N” and the “Dissolution After Heating at X° C.” value (M4N 13.3 mg/mL in 27% HP-β-CD, 33% PEG 400 (v/v), 60°) is reported as “Y at 60°”. The “Dissolution After Cool Down” value [2] was “N”, the “Dissolution After Rotation” value [2] was “N” and the “Dissolution After Heating at X° C.” value (M4N 13.3 mg/mL in 27% HP-β-CD, 33% Tween ® 80 (v/v), 60°) was “Y at 60°”. The “Dissolution After Rotation” value (M4N 14 mg/mL in 40% HP-β-CD) was “N”, the “Dissolution After Heating at X° C.” value (M4N 14 mg/mL in 40% HP-β-CD, 80°) was “N at 80°” and the “Dissolution After Rotation” value (M4N 16 mg/mL in 40% HP-β-CD) was “N”. The “Dissolution After Heating at X° C.” value (M4N 16 mg/mL in 40% HP-β-CD, 80°) was “N at 80°”, the “Dissolution After Cool Down” value [3] was “N” and the “Dissolution After Rotation” value [3] was “N”. The “Dissolution After Heating at X° C.” value (M4N 16.7 mg/mL in 13% HP-β-CD, 67% PEG 300 (v/v), 60°) was “Y at 60°”, the “Dissolution After Cool Down” value [4] was “N” and the “Dissolution After Rotation” value [4] was “N”. For the same compound, the “Dissolution After Heating at X° C.” value (M4N 19.3 mg/mL in 10% HP-β-CD, 77% PEG 300 (v/v), 60°) was “Y at 60°”, the “Dissolution After Cool-Down” value (M4N 20 mg/mL in 5% EC in EtOH) was “Y” and the “Dissolution After Rotation” value (M4N 20 mg/mL in 5% EC in EtOH) was “N”. For the same compound, the “Dissolution After Rotation” value (M4N 20 mg/mL in 30% HP-β-CD) was “N”, the “Dissolution After Heating at X° C.” value (M4N 20 mg/mL in 30% HP-β-CD, 90°) was “N at 90°” and the “Dissolution After Rotation” value (M4N 20 mg/mL in 40% HP-β-CD) was “N”. The “Dissolution After Heating at X° C.” value (M4N 20 mg/mL in 40% HP-β-CD, 80°) was “N at 80°”, the “Dissolution After Rotation” value (M4N 20 mg/mL in 50% HP-β-CD) was “N” and the “Dissolution After Rotation” value (M4N 20 mg/mL in 50% HP-β-CD, 0.5% CMC) was “Suspension”. For the same compound, the “Dissolution After Rotation” value (M4N 20 mg/mL in 50% HP-β-CD, 0.5% HPMC, other experiment, no heat) was “Suspension”, the “Dissolution After Heating at X° C.” value (M4N 20 mg/mL in 50% HP-β-CD, 90°) was “N at 90°” and the “Dissolution After Cool-Down” value (M4N 20 mg/mL in Corn Oil) was “Y”. For the same compound, the “Dissolution After Cool-Down” value (M4N 20 mg/mL in Sesame Oil) was “Y”, the “Dissolution After Cool-Down” value (M4N 24.3 mg/mL in 75% Sesame Oil, 9% Tween ® 20, 16% Glycerol) was “Y” and the “Dissolution After Cool-Down” value (M4N 29 mg/mL in 89% Sesame Oil, 11% Tween ® 20) was “Y”. For the same compound, the “Dissolution After Cool-Down” value (M4N 30 mg/mL in 5% EC in EtOH) was “N”, the “Dissolution After Rotation” value (M4N 30 mg/mL in 5% EC in EtOH) was “N” and the “Dissolution After Cool-Down” value (M4N 30 mg/mL in Olive Oil) was “N”. For the same compound, the “Dissolution After Cool-Down” value (M4N 30 mg/mL in Sesame Oil) was “Y”, the “Dissolution After Cool-Down” value (M4N 30 mg/mL in Soybean Oil) was “N” and the “Dissolution After Cool-Down” value (M4N 40 mg/mL in 50% Peppermint Oil, 50% PEG 300) was “Y”. For the same compound, the “Dissolution After Cool-Down” value (M4N 40 mg/mL in 50% Peppermint Oil, 50% PEG 400) was “Y”, the “Dissolution After Cool-Down” value (M4N 40 mg/mL in 50% Peppermint Oil, 50% Sesame Oil) was “Y” and the “Dissolution After Cool-Down” value (M4N 40 mg/mL in 50% Peppermint Oil, 50% Tween ® 20) was “Y”. For the same compound, the “Dissolution After Cool-Down” value (M4N 40 mg/mL in 85% Sesame Oil, 15% Tween ® 20) was “N”, the “Dissolution After Cool-Down” value (M4N 40 mg/mL in Corn Oil) was “Y” and the “Dissolution After Cool-Down” value (M4N 40 mg/mL in Peppermint Oil) was “Y”. The “Dissolution After Rotation” value (M4N 50 mg/mL in 2.3% HPMC) was “N”, the “Dissolution After Cool-Down” value (M4N 50 mg/mL in 5% EC in EtOH) was “N” and the “Dissolution After Rotation” value (M4N 50 mg/mL in 5% EC in EtOH) was “N”. For the same compound, the “Dissolution After Rotation” value (M4N 50 mg/mL in 15% α-CD) was “N”, the “Dissolution After Heating at X° C.” value (M4N 50 mg/mL in 15% α-CD, 90°) was “N at 90°” and the “Dissolution After Rotation” value (M4N 50 mg/mL in 20% HP-β-CD in saline) was “N”. The “Dissolution After Rotation” value (M4N 50 mg/mL in 30% HP-β-CD) was “N”, the “Dissolution After Heating at X° C.” value (M4N 50 mg/mL in 30% HP-β-CD, 90°) was “N at 90°” and the “Dissolution After Rotation” value (M4N 50 mg/mL in 40% HP-β-CD) was “N”. The “Dissolution After Heating at X° C.” value (M4N 50 mg/mL in 40% HP-β-CD, 80°) was “N at 80°”, the “Dissolution After Rotation” value (M4N 50 mg/mL in 50% HP-β-CD) was “N” and the “Dissolution After Rotation” value (M4N 50 mg/mL in 50% HP-β-CD, 0.5% HPMC) was “N”. The “Dissolution After Rotation” value (M4N 50 mg/mL in 50% HP-β-CD, 0.5% HPMC, other experiment, no heat) was “Suspension”, the “Dissolution After Heating at X° C.” value [5] was “N” and the “Dissolution After Rotation” value [5] was “N”. For the same compound, the “Dissolution After Heating at X° C.” value (M4N 50 mg/mL in 50% HP-β-CD, 90°) was “N at 90°” and the “Dissolution After Cool-Down” value (M4N 50 mg/mL in Camillia Oil) was “N”.
